Assay results from US20240131032A1, “AN ACTIVITY-GUIDED MAP OF ELECTROPHILE-CYSTEINE INTERACTIONS IN PRIMARY HUMAN IMMUNE CELLS” (The Scripps Research Institute, priority 2019, published 2024).
Residues, ends and D or L forms follow the SMILES beside them. *: point of attachment. Cbz = O=C(OCc1ccccc1)*

Experiments:
[1] = system: primary human T cells; conditions: cited from earlier work
[2] = molecular target: T1, ERCC3 (Homo sapiens, UniProt P19447); test: isoTOP-ABPP and TMT-ABPP cysteine engagement, ERCC3; assay type: binding
T1 construct: endogenous in cells; host or cells: primary human T cells
T1 sequence (P19447 1-782): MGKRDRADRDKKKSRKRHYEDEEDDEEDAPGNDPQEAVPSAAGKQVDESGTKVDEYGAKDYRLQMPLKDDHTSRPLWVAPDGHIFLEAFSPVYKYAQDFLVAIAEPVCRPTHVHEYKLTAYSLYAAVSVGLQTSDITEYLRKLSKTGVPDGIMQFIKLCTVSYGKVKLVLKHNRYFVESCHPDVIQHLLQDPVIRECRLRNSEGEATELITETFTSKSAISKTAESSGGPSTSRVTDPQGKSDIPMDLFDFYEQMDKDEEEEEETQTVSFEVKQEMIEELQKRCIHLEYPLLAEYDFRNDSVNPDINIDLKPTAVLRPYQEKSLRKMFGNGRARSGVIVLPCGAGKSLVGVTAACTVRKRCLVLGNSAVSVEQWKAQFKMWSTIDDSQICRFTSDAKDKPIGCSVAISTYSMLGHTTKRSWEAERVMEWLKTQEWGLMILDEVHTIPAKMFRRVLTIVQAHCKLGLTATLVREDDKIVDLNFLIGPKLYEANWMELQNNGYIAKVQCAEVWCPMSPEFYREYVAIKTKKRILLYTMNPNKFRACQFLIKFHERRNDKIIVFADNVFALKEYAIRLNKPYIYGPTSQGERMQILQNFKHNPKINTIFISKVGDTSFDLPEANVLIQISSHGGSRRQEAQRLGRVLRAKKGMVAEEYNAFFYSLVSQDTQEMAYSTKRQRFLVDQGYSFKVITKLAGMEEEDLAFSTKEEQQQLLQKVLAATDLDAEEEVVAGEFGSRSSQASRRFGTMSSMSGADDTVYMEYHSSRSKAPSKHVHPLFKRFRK
Method: Activated or expanded T cells were re-suspended in RPMI media supplemented with 10% FBS, L-glutamine (2 mM), penicillin (100 U/mL), and streptomycin (100 μg/mL) at 2×10^6 cells/mL. The compounds were added to cells as 1000×DMSO stocks and mixed well with the media by pipetting up and down after addition. The cells were kept at 37° C. in 5% CO2 containing incubators for 3 h (or otherwise specified times), then pelleted by centrifugation (524 g, 5 min, 4° C.), washed with cold PBS (10 mL) and transferred to Eppendorf tubes (1 mL PBS). The cells were pelleted again (524 g, 5 min, 4° C.), flash-frozen, and kept at −80° C. until further analysis.
Activated or expanded primary human T cells were re-suspended in RPMI (1×10^6 cells/mL) containing 10% fetal bovine serum (FBS), penicillin (100 U/mL), streptomycin ([…]), and L-glutamine (2 mM). The cells were treated with DMSO or compounds for 3 h, pelleted (524 g, 5 min), washed with PBS, and lysed by sonication (2×8 pulses). Soluble and particulate proteomic fractions were separated by ultracentrifugation (100,000 g, 45 min), and protein concentration was normalized to 1.7 mg/mL using a standard DC protein assay (Bio-Rad). The resulting proteomes were analyzed by competitive isotopic Tandem Orthogonal Proteolysis Activity-Based Protein Profiling (isoTOP-ABPP).
Samples (500 μL, 1.7 mg/mL) were treated with iodoacetamide alkyne (IA-alkyne, 5 μL of 10 mM stock in DMSO, final concentration: 100 μM) for 1 h at ambient temperature. Modified proteins were then conjugated to isotopically labeled, TEV-cleavable biotin tags (TEV-tags) using copper-catalyzed azide-alkyne cycloaddition reaction (CuAAC). Reagents for the CuAAC reaction were pre-mixed prior to their addition to the proteome samples. […]
The heavy/light isoTOP-ABPP ratios (R values) for each unique peptide (DMSO/compound treated) were quantified with in-house CIMAGE software (Weerapana et al., 2010) using default parameters (3 MS1 acquisitions per peak and signal to noise threshold set to 2.5). Site-specific engagement of cysteine residues was assessed by blockade of IA-alkyne probe labeling. […] Ratios for unique peptide sequences were calculated for each experiment; overlapping peptides with the same modified cysteine (e.g., different charge states, elution times or tryptic termini) were grouped together and the median ratio was reported as the final ratio (R). […]

[3] = system: NF-κB; conditions: cited from earlier work
[4] = molecular target: T2, ITK (Homo sapiens, UniProt Q08881); test: Western blot of ITK protein content in T cells; assay type: cell-based; conditions: MG132 10 μM
T2 construct: endogenous in cells; host or cells: primary human T cells (αCD3/CD28-stimulated, naïve or expanded)
T2 sequence (Q08881 1-620): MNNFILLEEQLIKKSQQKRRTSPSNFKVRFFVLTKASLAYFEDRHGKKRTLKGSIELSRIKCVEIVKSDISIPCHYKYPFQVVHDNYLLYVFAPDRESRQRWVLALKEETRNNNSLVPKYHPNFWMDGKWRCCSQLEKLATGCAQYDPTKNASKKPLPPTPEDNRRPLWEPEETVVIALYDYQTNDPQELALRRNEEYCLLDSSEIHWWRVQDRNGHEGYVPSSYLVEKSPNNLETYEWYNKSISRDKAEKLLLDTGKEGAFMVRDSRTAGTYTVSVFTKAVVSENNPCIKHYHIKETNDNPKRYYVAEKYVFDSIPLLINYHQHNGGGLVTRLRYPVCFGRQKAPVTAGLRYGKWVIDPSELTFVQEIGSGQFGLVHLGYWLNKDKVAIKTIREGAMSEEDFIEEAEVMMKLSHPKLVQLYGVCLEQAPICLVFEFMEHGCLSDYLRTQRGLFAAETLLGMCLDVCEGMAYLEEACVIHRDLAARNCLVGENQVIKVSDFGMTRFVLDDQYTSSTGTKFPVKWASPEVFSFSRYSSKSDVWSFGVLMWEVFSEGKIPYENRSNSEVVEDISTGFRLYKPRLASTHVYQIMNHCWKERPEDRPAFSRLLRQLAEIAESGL
Method: T cells were treated with DMSO or compounds (5 μM each) for 8 h. […] (F) Quantitation of western blot data, where protein band intensity calculations were made using ImageJ software and represent the mean percentage of DMSO-treated control±SD; n=2-5 independent experiments per group. **p<0.01 by two-tailed unpaired t test with Welch's correction compared to EV-97 treatment. […] Data are presented as the mean percentage of DMSO-treated control±SEM; n=4 independent experiments per group. ****p<0.0001 by two-tailed unpaired t test with Welch's correction compared to DMSO-treated stim control.
Results are from one experiment representative of 2-5 independent experiments. […] Cells were treated with compounds (5 μM each) or DMSO control for 8 h. Protein band intensity calculations were made using ImageJ software and represent the mean percentage of DMSO-treated control±SD; n=2-5 independent experiments per group. **p<0.01 by two-tailed unpaired t test with Welch's correction compared to DMSO-treated stim control. […] Cells treated with DMSO or EV-96 (5 μM) for 1-8 h. Results are from a single experiment representative of 2-4 independent experiments. […] Cells were treated with compounds (5 μM each) or DMSO for 8 h. Results are from one experiment representative of 2 independent experiments.

[5] = molecular target: T3, BIRC3 (Homo sapiens, UniProt Q13489); test: Western blot of BIRC3 content in human T cells; assay type: cell-based; conditions: MG132 10 μM with EV-3, 24 h
T3 construct: endogenous in cells; host or cells: primary human T cells
T3 sequence (Q13489 whole entry): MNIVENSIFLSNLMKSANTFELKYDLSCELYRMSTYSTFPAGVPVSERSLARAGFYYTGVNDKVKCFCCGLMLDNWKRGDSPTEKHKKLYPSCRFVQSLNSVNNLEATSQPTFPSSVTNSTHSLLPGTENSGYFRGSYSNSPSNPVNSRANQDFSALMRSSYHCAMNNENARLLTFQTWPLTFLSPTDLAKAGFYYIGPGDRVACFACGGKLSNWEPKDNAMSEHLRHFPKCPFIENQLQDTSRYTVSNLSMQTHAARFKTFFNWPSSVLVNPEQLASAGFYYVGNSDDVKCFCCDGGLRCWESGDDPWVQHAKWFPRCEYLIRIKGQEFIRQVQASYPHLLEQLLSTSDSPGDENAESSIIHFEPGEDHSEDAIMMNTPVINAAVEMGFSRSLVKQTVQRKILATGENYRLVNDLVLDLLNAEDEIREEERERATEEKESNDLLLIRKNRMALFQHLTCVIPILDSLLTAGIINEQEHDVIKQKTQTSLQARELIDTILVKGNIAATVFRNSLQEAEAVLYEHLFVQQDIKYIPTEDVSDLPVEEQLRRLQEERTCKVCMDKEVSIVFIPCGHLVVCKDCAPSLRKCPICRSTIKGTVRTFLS

[6] = molecular target: BIRC2 (Homo sapiens, UniProt Q13490); test: Western blot of BIRC2 content in human T cells; conditions: MG132 10 μM with EV-3, 24 h
Chain of BIRC2 (Q13490 whole entry): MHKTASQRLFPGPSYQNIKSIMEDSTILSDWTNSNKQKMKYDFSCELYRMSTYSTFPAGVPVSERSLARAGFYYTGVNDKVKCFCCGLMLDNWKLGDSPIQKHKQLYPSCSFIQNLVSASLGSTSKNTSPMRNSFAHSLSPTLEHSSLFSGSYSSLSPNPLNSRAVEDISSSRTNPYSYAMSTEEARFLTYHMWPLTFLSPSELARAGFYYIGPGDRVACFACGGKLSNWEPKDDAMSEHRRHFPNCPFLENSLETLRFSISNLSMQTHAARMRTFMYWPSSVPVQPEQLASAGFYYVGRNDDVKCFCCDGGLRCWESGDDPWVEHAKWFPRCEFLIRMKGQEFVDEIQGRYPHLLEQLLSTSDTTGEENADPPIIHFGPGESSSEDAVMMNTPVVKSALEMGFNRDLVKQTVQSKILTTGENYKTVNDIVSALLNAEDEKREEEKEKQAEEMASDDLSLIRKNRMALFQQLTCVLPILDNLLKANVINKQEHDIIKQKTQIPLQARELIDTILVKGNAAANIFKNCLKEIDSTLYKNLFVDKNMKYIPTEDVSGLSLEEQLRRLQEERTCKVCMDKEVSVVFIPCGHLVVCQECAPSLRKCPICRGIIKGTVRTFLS
Method: All treatments were for 24 h.
All treatments were for 24 h. […] Plasmids expressing FLAG epitope-tagged versions of wild-type (WT) or the indicated cysteine-to-alanine mutants of BIRC2 (C45A) and BIRC3 (C28A) were co-transfected into primary human T cells with mCherry-expressing plasmid to control for transfection efficiency for 24 h. Cells were then treated with DMSO, EV-3 (10 μM), or AT-406 (1 μM) for 24 h and analyzed by anti-FLAG western blotting. […] (G) Quantitation of western blot data, where protein band intensity calculations were made using ImageJ software and represent the mean percentage of DMSO treated control±SEM; n=3 independent experiments per group. *p<0.05; **p<0.01 by two-tailed unpaired t test with Welch's correction compared to respective DMSO treatments.
Western blot analysis was performed on freshly isolated or expanded T cells. For Western blot protein degradation analysis, primary human T cells (2×10^7 cells/treatment) were re-suspended in RPMI media at 2×10^6 cells/mL and treated with the compounds or DMSO at 37° C. in a CO2 containing incubator for 24 h (or otherwise indicated times).

[7] = system: NuRD complex; test: Expression-based proteomics (TMT-exp) of compound-treated T cells, NuRD complex; assay type: cell-based, human; conditions: MG132 10 μM co-treatment, 24 h
Method: FIG. 7B is a scatter plot representation of protein abundance changes caused by BPK-25 (10 μM, 24 h) in two independent replicate experiments, with decreases in NuRD complex components highlighted in red. FIG. 7C is a heatmap of top proteins with decreased abundance in BPK-25-treated T cells showing that the subset of these proteins in the NuRD complex (asterisks) were largely unaltered by other active compounds and blocked in their degradation by co-treatment with the proteasome inhibitor MG132. […] FIG. 7E is a bar graph […] showing time-dependent reductions in NuRD complex members in human T cells treated with BPK-25 (10 μM). Left, representative western blots. Right, quantification of changes in protein. […] FIG. 7G is a heat map showing the changes in cysteine reactivity for NuRD complex members in human T cells treated with BPK-25 and other active compounds.
Freshly isolated T cells (1.6×10^7 cells, 2×10^6 cells/mL in RPMI media) were treated with compound or DMSO for 24 h, pelleted (600 g, 5 min), and washed with PBS (1×10 mL). The cells were then transferred to an Eppendorf tube in additional PBS (1 mL), pelleted (600 g, 5 min), flash frozen, and kept at −80° C. until further analysis. On the first day of the whole proteome TMT protocol, the cells were thawed on ice and lysed in lysis buffer (150 μL, 1 tablet of Roche complete, mini, EDTA-free Protease Inhibitor Cocktail dissolved in 10 mL of PBS) using a probe sonicator (2×8 pulses). Protein concentration was adjusted to 2.0 mg/mL and the samples (100 μL) were transferred to new Eppendorf tubes (1.5 mL) containing urea (48 mg/tube, final urea concentration: 8 M). DTT (5 μL, 200 mM fresh stock in H2O, final DTT concentration: 10 mM) was then added to the tubes and the samples were incubated at 65° C. for 15 min. Following this incubation, iodoacetamide (5 μL, 400 mM fresh stock in H2O, final IA concentration: 20 mM) was added and the samples were incubated in the dark at 37° C. with shaking for 30 min. Ice-cold MeOH (600 μL), CHCl3 (200 μL), and H2O (500 μL) were then added, the mixture was vortexed and centrifuged (10,000 g, 10 min, 4° C.) to afford a protein disc at the interface of CHCl3 and aqueous layers. The top layer was aspirated without perturbing the disk, additional MeOH (600 μL) was added and the proteins were pelleted (10,000 g, 10 min, 4° C.) and used in the next step or stored at −80° C. overnight.
The resulting protein pellets were resuspended in EPPS buffer (160 μL, 200 mM, pH 8) using a probe sonicator (2×6 pulses). […]
The sample became clear after the overnight digestion. At this point, peptide concentration was determined using microBCA assay (Thermo Scientific) according to manufacturer's instructions. […]

| SMILES | effect on T cell activation (has been shown) [1] | engagement of C342 of ERCC3 [2] | NF-κB DNA binding activity (has been shown) [3] | effect on EV-96-mediated loss of ITK (co-treatment) [4] | effect on EV-3-induced loss of BIRC3 [5] | effect on EV-3-induced loss of BIRC2 [6] | effect on BPK-25-mediated reductions in NuRD complex proteins [7] |
| --- | --- | --- | --- | --- | --- | --- | --- |
| CC(C)[C@]12O[C@H]1[C@@H]1O[C@]13[C@]1(O[C@H]1C[C@H]1C4=C(CC[C@@]13C)C(=O)OC4)[C@@H]2O [triptolide] | impair T cell activation | also targeted | without blocking |  |  |  |  |
| CC(C)C[C@@H](C=O)NC(=O)[C@H](CC(C)C)NC(=O)[C@H](CC(C)C)NC(=O)OCc1ccccc1 [MG132, reference compound] (Cbz-Leu-Leu-Leu-aldehyde) |  |  |  | blocked | blocks | blocks | blocked |
